The values below come from US20240270713A1, “NOVEL COMPOUND EXHIBITING THERAPEUTIC EFFECT ON INFLAMMATORY DISEASE AS P38 MAP KINASE INHIBITOR” (PRAZERTHERAPEUTICS INC., priority 2021, published 2024).

Assay [1] concerns IL-1β mRNA. Briefly: Cytokine mRNA expression inhibitory ability, IL-1β, LPS-treated BV2 cells. The settings on record: 1 μM compound 24 hours, then 1000 ng/ml LPS 24 hours. The class given is cell-based. How it is done: Evaluation of cytokine mRNA expression inhibitory ability by inflammatory response
In order to identify inhibition of p-p38 MAPK, the inhibition of p38 MAPK was identified by treating each compound to BV2 cells obtained by converting microglia that induces inflammation according to p-p38 MAPK activity in the brain into cancerous cells. Briefly, BV2 cells were cultured in Dulbecco's modified Eagle Medium supplemented with 10% fetal bovine serum and penicillin/streptomycin (100 U/ml). BV2 cells were treated with 1 μM of Compounds 4 to 6 according to the present disclosure in a culture dish respectively and cultured for 24 hours in a CO2 incubator, and then treated with 1000 ng/ml of LPS, followed by additional culture for 24 hours in a CO2 incubator.
After the cell culture was completed according to the experimental conditions, washing was performed with cold phosphate buffered saline (PBS). The cells were then collected and centrifuged at 1200 rpm for 3 minutes. RNA was extracted according to the method provided in the Hybrid-R total RNA purification kit (GeneAllR), 305-101). After measuring the concentration and purity of RNA using Nanodrop, cDNA was synthesized according to the method provided in TOPscript RT DryMIX (Enzynomics, RT200). […]

Assay [2] relates to IL-1β mRNA. The experiment in a line: Cytokine mRNA expression inhibitory ability, IL-1β, LPS-treated Raw264.7 cells. The class given is cell-based. The settings on record: 1 μM compound 24 hours, then 100 ng/ml LPS 24 hours. How it is done: Evaluation of cytokine mRNA expression inhibitory ability according to inflammatory response
(§1) In order to identify inhibition of p-p38 MAPK, inhibition of p38 MAPK was identified after treating each compound to Raw264.7 cells obtained by converting macrophages that induces inflammation according to p-p38 MAPK activity cancerous cells. Briefly, Raw264.7 cells were cultured in Dulbecco's modified Eagle Medium supplemented with 10% fetal bovine serum and penicillin/streptomycin (100 U/ml). Raw264.7 cells were treated with 1 μM of Compounds 1 to 5 according to the present disclosure in a culture dish respectively and cultured for 24 hours in a CO2 incubator, and then treated with 100 ng/ml of LPS, followed by additional culture for 24 hours in a CO2 incubator.
After cell culture was terminated according to the experimental conditions, cells were washed with cold phosphate buffered saline (PBS). The cells were then collected and centrifuged at 1200 rpm for 3 minutes. RNA was extracted according to the method provided in the Hybrid-R total RNA purification kit (GeneAll, 305-101). After measuring the concentration and purity of RNA using Nanodrop, cDNA was synthesized according to the method provided in TOPscript RT DryMIX (Enzynomics, RT200). After a reaction at 95° C. for 3 minutes using SYBR Green Mix along with primer, cDNA was subjected to repetitive reactions 30 times at 95° C. for 10 seconds, at 55° C. for 10 seconds, and at 72° C. for 30 seconds to determine the RNA expression level. The results are shown in Tables 5 and 6 below and FIGS. 1 and 2.

The target of another assay is p-p38 MAPK (Mus musculus (Mouse), UniProt P47811). The experiment in a line: p38 MAPK protein inhibitory ability in cells (p-p38 immunoblot, LPS-treated Raw264.7). The class given is cell-based. Particulars: Raw264.7 cells, 1 μM compound 24 hours, then 100 ng/ml LPS 6 hours. How it is done:
Evaluation of p38 MAPK protein inhibitory ability in cells
as §1, with “Raw264.7 cells which are obtained by” for “Raw264.7 cells obtained by”, “MAPK activity into cancerous cells.” for “MAPK activity cancerous cells.”, “culture for 6 hours in” for “culture for 24 hours in”
After cell culture was terminated according to the experimental conditions, cells were washed with cold phosphate buffered saline (PBS). The cells were then collected and centrifuged at 1200 rpm for 3 minutes. The pellet was lysed with 2X sample buffer (1M Tris-HCl pH 6.8, 50% glycerol, 10% SDS, 2-mercaptoethanol, 1% bromophenol blue) and boiled at 100° C. for 10 minutes. The prepared protein samples were subjected to sodium dodecyl sulfate poly acrylamide gel electrophoresis and transferred to PVDF membrane (Millipore). For a specific binding reaction between the protein in the PVDF membrane and antibody, blocking was performed in a 5% bovine serum albumin (BSA, RMbio) solution. Subsequently, the BSA solution was discarded, and the membrane was washed with PBS-T (0.5% Tween 20 in PBS). The binding reaction of the protein in the membrane and antibody was performed overnight at 4° C. and washed again with PBS-T. Finally, a secondary antibody (Cell signaling Technology) conjugated with horse radish peroxidase (HRP) was diluted in PBS-T and reacted at room temperature for 2 hours. Luminata Forte HRP substrate (Millipore) was used to determine the amount of protein in the membrane, the results of which are shown in Table 4 below.

A further assay deals with p38 alpha (Homo sapiens (Human), UniProt Q16539). The experiment in a line: p38α MAPK inhibitory ability (peptide/kinase mixture, development reagent, 445/520 nm). The class given is biochemical. The settings on record: 1 hour at room temperature. The procedure:
Evaluation of p38a mitogen-activated protein kinase (MAPK) inhibitory ability
To determine the ability to inhibit p38 MAPK, Compounds 1 to 5 were diluted to determine the inhibitory effect depending on a concentration. Briefly, the compounds were diluted at concentrations of 1000, 333, 111, 37.0, 12.3, 4.12, 1.37, 0.457, 0.152, and 0.0495 nM, respectively, and then a peptide/kinase mixture (final 7.07-28.3 ng p38 alpha, 2 μM serine/threonine 15, 50 mM HEPES pH 7.0, 0.01% NaN3) and ATP solution were added respectively. After reacting at room temperature for 1 hour, a development reagent was added, followed by a reaction again at room temperature for 1 hour.

For a further assay, the system named is TNFα. The experiment in a line: TNFα inhibitory ability by cellular inflammatory response (supernatant, antibody-coated plate), Raw264.7 cells. It counts as cell-based. Particulars: Mus musculus, 1 μM compound 24 hours, then 100 ng/ml LPS 24 hours, supernatant protein. How it is done: Evaluation of TNFα inhibitory ability by cellular inflammatory response
as §1
After the cell culture was completed according to the experimental conditions, the supernatant was obtained and centrifuged for 3 minutes at 1200 rpm. The centrifuged supernatant was dispensed into an antibody-coated plate, reacted at room temperature for 2 hours, and washed with PBS-T (0.5% tween 20 in PBS). After dispensing detection antibody including HRP, a reaction was performed at room temperature for 1 hour, and the amount of protein was checked at a wavelength of 450 nm, the results of which are shown in Table 7 below.

Sequence of p38 alpha (Q16539 whole entry): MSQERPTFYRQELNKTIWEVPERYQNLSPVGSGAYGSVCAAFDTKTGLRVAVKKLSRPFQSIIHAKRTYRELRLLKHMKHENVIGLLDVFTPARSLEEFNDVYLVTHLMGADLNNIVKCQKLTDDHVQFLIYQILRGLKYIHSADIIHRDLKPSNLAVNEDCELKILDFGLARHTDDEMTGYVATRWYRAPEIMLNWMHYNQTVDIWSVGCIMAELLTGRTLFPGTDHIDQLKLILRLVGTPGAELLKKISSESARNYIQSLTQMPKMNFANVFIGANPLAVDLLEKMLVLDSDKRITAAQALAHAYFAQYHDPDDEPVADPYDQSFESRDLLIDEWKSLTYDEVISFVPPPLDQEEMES
Sequence of p-p38 MAPK (P47811 whole entry): as the sequence (Q16539 whole entry) above, with L48H, T263A counted along it

For the compound `Cc1c(F)cc(C(=O)NC2CC2)cc1-c1ccc(C(=O)c2c[nH]c3ccccc23)cn1` [Compound 4, 3-(5-(1H-indole-3-carbonyl)pyridin-2-yl)-N-cyclopropyl-5-fluoro-4-methylbenzamide], the “IL-1β mRNA inhibition” value was determined as 68.5% with IL-1β mRNA [1] and 38.2% in the assay on IL-1β mRNA [2]. The inhibition at 1 µM at p-p38 MAPK was 68%; in the assay on TNFα, 76.6%. On p38 alpha, the IC50 is 18.8 nM.
